Assay results from publication PMC5363373, “Zirconium tetraazamacrocycle complexes display extraordinary stability and provide a new strategy for zirconium-89-based radiopharmaceutical development” (Chemical Science, 2016).

Key:
[1] = Behaviour of the complex in solution in vitro; assay type: physicochemical; conditions: unless a low concentration of surfactant was included
PET/CT imaging = assay type: in vivo, female NIH Swiss mice; conditions: normal mice; for Route of excretion: PET imaging; for PET: radioactivity at 4 h after injection / PET: radioactivity at 24 h after injection: static imaging
Procedure: PET/CT Imaging. PET imaging with 89Zr-DFO or 89Zr-DOTA was performed on healthy female NIH Swiss mice (6-8 wk old, n=6) using a small animal PET/CT scanner (eXplore VISTA model, GE Healthcare, Waukesha, WI). Before imaging, each mouse was anesthetized by inhalation of isoflurane mixed with oxygen gas (3% isoflurane for induction and 1-2% for maintenance) and a tail vein catheter was placed on the tail. The mouse was then positioned in the imaging cradle and a CT scan was performed for the subsequent attenuation correction and anatomical colocalization. After the CT scan, 89Zr-DFO or 89Zr-DOTA (11.1-12.5 MBq (300-338 µCi) in 100 µL saline/ mouse) was administered through the tail vein catheter, and a dynamic PET scan was simultaneously initiated and acquired for 1 hour to record the initial distribution and pharmacokinetics. Mice were re-anesthetized at 2, 4 and 24 hours, and a static PET scan was acquired for 20 min as late-phase scans. PET images were reconstructed using 2D ordered subset expectation maximization (2D-OSEM) algorithms with random, scatter, and attenuation corrections and then coregistered with the CT image. The PET system was calibrated using a Zr-89 phantom with known activity. Standard uptake value (SUV = [(nCi/mL) x (animal wt. (g))/ injected dose (nCi)]) and the measure of %ID/g was then calculated voxel-wise with the calibration factor and normalization to the injected dose and animal body weight. For dynamic scans, data were binned into 19 time frames with the following schemes: 6x10s, 2x30s, 3x60s, 5x5min, 3x10min. The tissue uptake curves were generated from the dynamic scans with regions of interest (ROIs) manually placed in heart, liver, kidney, bone, and muscle. Biodistribution data at 2, 4 and 24 hours were obtained from the PET images, with regions of interest placed in corresponding organs or tissues.

Route of excretion (PET/CT imaging) | PET: radioactivity at 24 h after injection (PET/CT imaging) | Compound | Behaviour in solution without surfactant [1] | PET: radioactivity at 4 h after injection (PET/CT imaging)
 |  | NC(=O)CN1CCN(CC(N)=O)CCN(CC(N)=O)CCN(CC(N)=O)CC1.[89Zr+4] [89Zr-DOTAM] | aggregated and precipitated out of solution | 
excreted renally | barely above background levels | O=C1CN2CCN3CCN4CCN(CC2)CC(=O)[O][89Zr]([O]1)([O]C(=O)C3)[O]C(=O)C4 [89Zr-DOTA] |  | nearly all the radioactivity was excreted
excreted renally | still visible | CC(=O)N1CCCCCNC(=O)CCC(=O)N2CCCCCNC(=O)CCC(=O)N(CCCCCN)[O][89Zr+]([O]1)[O]2 [89Zr-DFO, reference compound] |  | more radioactivity accumulated in the kidneys
